Source: the supplement of paper PMC11962398

Columns and labels:
BI-2493 [1] = compound: T1, C[C@H]1CNCCN1c1nccc(-c2noc3c2CCC[C@@]32CCCc3sc(N)c(C#N)c32)n1 [BI-2493]; conditions: 5 days
Description: (§1)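 PRISM pooled barcoded cancer cell line viability screen (Broad Institute) with BI-2493 at 8 doses in threefold dilutions from 0.00457 to 10 µmol/L, 5-day treatment; curves fitted per cell line. IC50 is undefined (placeholder) for resistant lines. AUC is capped at 1, and sensitivity is reported as 1 − AUC.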

BI-2493 [2] = compound: T1, BI-2493; experiment: 1 - AUC of viability dose-response curve (sensitivity) (fraction); higher = more sensitive; conditions: 5 days
Description: as §1

| Test System | IC50 of cell viability (BI-2493 [1]) | 1 - AUC of viability dose-response curve (BI-2493 [2]) |
| --- | --- | --- |
| BXPC3_PANCREAS | > 10 µM | 0.0507 |
| C4I_CERVIX | 3.49 µM | 0.154 |
| C32_SKIN | 9.25 µM | 0.0594 |
| C33A_CERVIX | 3.53 µM | 0.131 |
| C75_LARGE_INTESTINE | 9.28 µM | 0.22 |
| C80_LARGE_INTESTINE | 0.477 µM | 0.3 |
| C8166_HAEMATOPOIETIC_AND_LYMPHOID_TISSUE | 9.65 µM | 0.00732 |
| CADOES1_BONE | 9.64 µM | 0.00999 |
| CAKI1_KIDNEY | 9.29 µM | 0.0185 |
| CAL12T_LUNG | 4.93 µM | 0.201 |
| CAL27_UPPER_AERODIGESTIVE_TRACT | 3.79 µM | 0.241 |
| CAL29_URINARY_TRACT | 2.5 µM | 0.264 |
| CAL33_UPPER_AERODIGESTIVE_TRACT | 6.54 µM | 0.142 |
| CAL51_BREAST | 9.13 µM | 0.0624 |
| CAL54_KIDNEY | > 10 µM | 0.00233 |
| CAL62_THYROID | > 10 µM | 0.0045 |
| CAL72_BONE | > 10 µM | 0.176 |
| CAL78_BONE | 7.37 µM | 0.0497 |
| CAL120_BREAST | > 10 µM | 0.0763 |
| CAL148_BREAST | > 10 µM | < 0 |
| CALU1_LUNG | 5.25 µM | 0.0917 |
| CALU6_LUNG | 9.77 µM | 0.00583 |
| CAMA1_BREAST | > 10 µM | 0.00667 |
| CAOV3_OVARY | > 10 µM | 0.0615 |
| CAPAN2_PANCREAS | 1.2 µM | 0.303 |

| Test System | IC50 of cell viability (BI-2493 [1]) | 1 - AUC of viability dose-response curve (BI-2493 [2]) |
| --- | --- | --- |
| CAS1_CENTRAL_NERVOUS_SYSTEM | 9.1 µM | 0.0158 |
| CASKI_CERVIX | 8.68 µM | 0.0572 |
| CCFSTTG1_CENTRAL_NERVOUS_SYSTEM | > 10 µM | 0.00118 |
| CCK81_LARGE_INTESTINE | 6.18 µM | 0.0958 |
| CCLP1_BILIARY_TRACT | 7.32 µM | 0.0617 |
| CCSW1_BILIARY_TRACT | 5.45 µM | 0.14 |
| CFPAC1_PANCREAS | 4.12 µM | 0.15 |
| CH157MN_CENTRAL_NERVOUS_SYSTEM | 8.61 µM | 0.0235 |
| CHAGOK1_LUNG | 4.47 µM | 0.173 |
| CHL1_SKIN | 4.96 µM | 0.14 |
| CHLA06ATRT_SOFT_TISSUE | 7.12 µM | 0.141 |
| CHLA15_AUTONOMIC_GANGLIA | 5.41 µM | 0.187 |
| CHLA57_BONE | 3.06 µM | 0.211 |
| CHLA200_CENTRAL_NERVOUS_SYSTEM | 9.58 µM | 0.0104 |
| CHP212_AUTONOMIC_GANGLIA | 9.9 µM | 0.00818 |
| CJM_SKIN | 5.39 µM | 0.11 |
| CL11_LARGE_INTESTINE | 5.92 µM | 0.117 |
| CL34_LARGE_INTESTINE | > 10 µM | 0.00172 |
| CMLT1_HAEMATOPOIETIC_AND_LYMPHOID_TISSUE | 4.55 µM | 0.129 |
| COGN278_AUTONOMIC_GANGLIA | 7.86 µM | 0.0701 |
| COLO320_LARGE_INTESTINE | 7.35 µM | 0.057 |
| COLO668_LUNG | 5.95 µM | 0.103 |
| COLO679_SKIN | 4.47 µM | 0.146 |
| COLO680N_OESOPHAGUS | 8.49 µM | 0.0719 |
| COLO741_SKIN | 9.66 µM | 0.00696 |

| Test System | IC50 of cell viability (BI-2493 [1]) | 1 - AUC of viability dose-response curve (BI-2493 [2]) |
| --- | --- | --- |
| COLO783_SKIN | 5.22 µM | 0.176 |
| COLO792_SKIN | 7.62 µM | 0.221 |
| COLO800_SKIN | 7.65 µM | 0.0454 |
| CORL23_LUNG | 5.82 µM | 0.0991 |
| CORL88_LUNG | 4.54 µM | 0.143 |
| CORL105_LUNG | > 10 µM | 0.157 |
| CORL279_LUNG | 7.86 µM | 0.134 |
| COV318_OVARY | > 10 µM | 0.0643 |
| COV362_OVARY | > 10 µM | 0.00606 |
| COV434_OVARY | 3.6 µM | 0.191 |
| COV644_OVARY | 7.18 µM | 0.157 |
| CW2_LARGE_INTESTINE | 8.55 µM | 0.071 |
| CW9019_SOFT_TISSUE | 3.99 µM | 0.111 |
| DAOY_CENTRAL_NERVOUS_SYSTEM | 9.62 µM | 0.0237 |
| DBTRG05MG_CENTRAL_NERVOUS_SYSTEM | 7.98 µM | 0.0396 |
| DETROIT562_UPPER_AERODIGESTIVE_TRACT | 2.81 µM | 0.18 |
| DKMG_CENTRAL_NERVOUS_SYSTEM | 4.05 µM | 0.112 |
| DL_SOFT_TISSUE | 4.57 µM | 0.192 |
| DMS53_LUNG | 6.38 µM | 0.114 |
| DMS79_LUNG | > 10 µM | 0.0188 |
| DMS273_LUNG | 2.81 µM | 0.265 |
| DND41_HAEMATOPOIETIC_AND_LYMPHOID_TISSUE | 4.59 µM | 0.156 |
| DOTC24510_CERVIX | 6.38 µM | 0.0765 |
| DU145_PROSTATE | > 10 µM | 0.172 |
| DU4475_BREAST | 2.96 µM | 0.151 |

| Test System | IC50 of cell viability (BI-2493 [1]) | 1 - AUC of viability dose-response curve (BI-2493 [2]) |
| --- | --- | --- |
| DV90_LUNG | 0.856 µM | 0.308 |
| EB1_HAEMATOPOIETIC_AND_LYMPHOID_TISSUE | 9.47 µM | 0.0219 |
| EBC1_LUNG | 6.97 µM | 0.0696 |
| ECC2_BILIARY_TRACT | > 10 µM | < 0 |
| ECC10_STOMACH | 4.51 µM | 0.0829 |
| ECGI10_OESOPHAGUS | 4.75 µM | 0.15 |
| EFM19_BREAST | 8.2 µM | 0.0426 |
| EFM192A_BREAST | > 10 µM | 0.0526 |
| EFO21_OVARY | > 10 µM | 0.106 |
| EFO27_OVARY | 9.28 µM | 0.167 |
| EKVX_LUNG | 7.44 µM | 0.146 |
| EM2_HAEMATOPOIETIC_AND_LYMPHOID_TISSUE | 4.85 µM | 0.207 |
| EMTOKA_ENDOMETRIUM | 4.31 µM | 0.0999 |
| EN_ENDOMETRIUM | 9.54 µM | 0.0294 |
| EOL1_HAEMATOPOIETIC_AND_LYMPHOID_TISSUE | 0.77 µM | 0.355 |
| ES2_OVARY | 9.51 µM | 0.00984 |
| ESS1_ENDOMETRIUM | 1.43 µM | 0.362 |
| EW8_BONE | 4.5 µM | 0.0935 |
| EWS502_BONE | 3.56 µM | 0.177 |
| FADU_UPPER_AERODIGESTIVE_TRACT | 6.09 µM | 0.102 |
| FLO1_OESOPHAGUS | 4.86 µM | 0.0758 |
| FTC133_THYROID | > 10 µM | 0.0578 |
| G292CLONEA141B1_BONE | > 10 µM | 0.0653 |
